The subject of assay [1] is methanogenesis in Powder River Basin coal and formation water. Put plainly: Single and multiple nutrient amendments, Powder River Basin coal (FIG. 9). The assay is classed as cell-based. As to conditions: phosphate 5 mg/L, yeast extract about 500 mg/L, BESA about 10 mM.
Method: Two comparative groups were also measured: (1) Samples of the Power River Basin coal to which no amendments were added (unamended), and (2) Samples of the PRB coal to which bromoethanesulfonic acid (BESA), a known methanogen-specific inhibitor, was added.
The headspace in the bottle above the sample was exchanged with helium.
The amendments were added to the sample bottles until a target concentration of the amendment was reached. […] For the yeast extract only amended, Difco® yeast extract from Becton Dickinson and Company was added to the sample bottles until a concentration of about 500 mg/L was reached.
Finally, for the samples used in the comparative example where methane production from methanogenesis was inhibited, BESA was added to the sample bottles until it reached a concentration of about 10 mM.
Methane production from the samples were measured and plotted as the percentage of methane in the headspace above the liquid in the serum bottle. Three sample bottles were prepared for each amendment, and the methane concentrations were measured in triplicate and averaged.
Assay [2] relates to methanogenesis in produced water and oil. Put plainly: Phosphorous compound amendments in oil samples, field in Texas (FIG. 10). The class given is cell-based. As to conditions: 45° C., 14 days, oil from Texas field. Here is the method:
Produced water and oil samples were collected directly from well heads after passing produced fluids through a portable anaerobic and disinfected oil-water separator. Strict anoxic techniques were used. The water samples were maintained at field temperature prior to use in experiments. Twenty mls of produced water and 0.1 ml of oil were distributed into sterile 36.5 ml serum bottles contained within a disinfected anaerobic glove bag. The anaerobic glove bag contained a filtration apparatus for removing airborne microbial contaminants. […] Incubation temperature was 45° C., the approximate in-situ temperature. Incubation period prior to headspace gas analysis was 14 days. The samples were prepared with the following amendments: […] Final bottle concentration −0.5 mg/L as Phosphorous; (2) Minerals (100× less the stock concentration in Table 2); (3) Metals (300× less the stock concentration in Table 1); (4) Minerals+Metals+Yeast extract (25 mg/L); (5) Minerals+Metals+Vitamins (100× less the stock concentration in appendix 1)+Yeast extract (25 mg/L). In addition, two comparative experiments were run for: […] The experimental bottles were placed into a heated water bath maintained at the field temperature during gas analysis to avoid temperature fluctuations. […] The methane measurements, expressed as the percentage of methane in the headspace above the sample bottles, were plotted in FIG. 10.

Assay [3] has as its system methanogenic consortia. In words: Enrichment transfer of methanogenic consortia on coal (FIG. 13). The assay is classed as cell-based. How it is done:
With the discovery that methanogenic consortia are commonly present in formation waters, a significant research effort, both laboratory and field oriented, was directed at identify methodologies for enhancing their activities in-situ. To this end, methanogenic consortia capable of rapid methanogenesis on coal from the Powder River Basin have been obtained using an enrichment procedure wherein a small volume of an active consortium is added to a “sterile” slurry bottle (in this case, autoclaved Tongue River coal and filter sterilized Tongue River formation water). The consortium is allowed to grow and metabolize, then the dilution series is repeated. This enrichment procedure appears to favor the growth of microorganisms more capable of metabolizing coal to methane. […] Very rapid methanogenesis was observed after the second transfer with rates 57 times greater on average relative to the parent samples (leftmost bars). The two exceptions to the trend were the last two sample sets on the far right of FIG. 13. These were cases in which methanogenesis was inhibited in the parental bottles intentionally with BESA and unintentionally in bottles that received solvent (pyridine) extracts of coal.

For assay [4], the system named is microorganism consortia in coal samples.
From the text: Rollover is a condition where the rate of biogenic methane production starts to plateau as the in situ methane concentration reaches a certain level. In many instances, the rate flattens to zero, and the methane concentration remains constant over time. The rollover point (i.e., the point where the methane concentration begins to break from a monotonically increasing state) can vary between microorganism consortia, but appears to be reached in almost all unamended samples of carbonaceous material that have been examined to date.
The subject of assay [5] is coal formation in Wyoming's Powder River Basin. How it is done: FIGS. 14A-B show graphs of measurements of methane gas production over time from a coal formation in Wyoming's Powder River Basin before and after an amendment of phosphate and filtered water was introduced to the formation.
The gas well was then treated with an amendment of phosphate and filtered water for about 1.2 months (i.e., late August to early October). The amendment included the introduction of an aqueous solution of 9.5×10^−5 M potassium phosphate to an underground natural gas formation at a rate of about 14,400 L/day for each day of the treatment period. Following the treatment period with the phosphorous amendment, the gas well was sealed for a period of about 2 months (i.e., early October to early December) before the measurements of gas were measured during the post-amendment period (the dwell period).
Then the same phosphorous amendment as described for FIG. 14A was added to the formation for a 1.2 month period (i.e., late August to early October) followed by an approximately 2 month dwell period.

Assay [6] deals with microorganisms present in the sample (Monarch coal seam coal and formation water). In words: Biogenic methane generation from Monarch coal samples with hydrogen, phosphorous compound and ammonia amendments. As to conditions: different coal and formation water sample; no ammonium and phosphate amendment.
Method: Experiments were conducted to compare biogenic methane generation from coal samples after introducing an amendment of hydrogen gas, a phosphorous compound, and ammonia. For each experiment, methane generation from coal samples from the Monarch coal seam in the Powder River Basin in Wyoming was periodically measured over the course of about 627 days. Each anaerobic 5 gram coal sample was placed in a nominal 36.5 ml serum bottle with 15 mL of anaerobic water that was also taken from the formation. The coal and formation water were placed in the serum bottle while working in an anaerobic glove bag. The headspace in the bottle above the sample was flushed with a mixture of N2 and CO2 (95/5).
The methane levels in the headspace above the samples was periodically measured and recorded. The methane was measured by running samples of the headspace gases through a gas chromatograph equipped with a thermal conductivity detector.
Assay [7] has as its system methanogenesis and acetate production in produced water and oil. Put plainly: Phosphorous compound amendments in oil samples, field in Montana (FIGS. 11A-B). As to conditions: oil from Montana field. The assay is classed as cell-based. How it is done:
Produced water and oil samples were collected directly from well heads after passing produced fluids through a portable anaerobic and disinfected oil-water separator. Strict anoxic techniques were used. The water samples were maintained at field temperature prior to use in experiments.
Twenty mls of produced water and 0.1 ml of oil were distributed into sterile 36.5 ml serum bottles contained within a disinfected anaerobic glove bag. The anaerobic glove bag contained a filtration apparatus for removing airborne microbial contaminants. […] Incubation temperature was 45° C., the approximate in-situ temperature. Incubation period prior to headspace gas analysis was 14 days. The samples were prepared with the following amendments: (1) Sodium phosphate. Final bottle concentration −0.5 mg/L as Phosphorous; (2) Minerals (100× less the stock concentration in Table 2); (3) Metals (300× less the stock concentration in Table 1); (4) Minerals+Metals+Yeast extract (25 mg/L); (5) Minerals+Metals+Vitamins (100× less the stock concentration in appendix 1)+Yeast extract (25 mg/L). […]
The experimental bottles were placed into a heated water bath maintained at the field temperature during gas analysis to avoid temperature fluctuations. […] The methane measurements, expressed as the percentage of methane in the headspace above the sample bottles, were plotted in FIG. 10. […]

Assay [8] deals with microorganisms in Monarch coal, formation water and cell concentrate. Particulars: 18.0 mM acetate. Here is the method:
Experiments were conducted to measure the effects of acetate amendments on methane production from samples of carbonaceous materials. The carbonaceous materials used in these experiments were coal samples taken from underground coal beds at the Monarch coal site. […] The cell concentrate consisted of cells from about 6.6 L of formation water added to 15 mL of formation water.
In a first set of samples, the acetate amendment included adding an aqueous sodium acetate solution to the sample bottles to give the samples an 18.0 mM acetate concentration (an average measured concentration). A second set of control samples were prepared in the same manner except for lacking the acetate amendment. Methane levels (measured as a mol. % methane in the headspace of the sample bottle) were periodically measured in both the amendment and control samples over the course of 90 days.

“Also recorded” adds a separate entry of the source.

As to “bromoethanesulfonic acid [BESA, reference compound]”, the “methane production, percentage of methane in headspace” value in assay [1] is on record as “did not accumulate”. Besides, in assay [2], the “methanogenesis, percentage of methane in headspace” value is reported as “below detection”. For the same compound, the “methanogenesis in parental bottles” value in assay [3] was “inhibited”.
As for `Cl.N` [ammonium chloride], in assay [4] (25 mg/L nitrogen, FIG. 7), the “initial rate of methane production” value is listed as “initially greater than for the unamended samples or samples with other types of amendments” and the peak methane level result is on record as “exceeded the peak plateau levels in the unamended samples”. Besides, the “methane level versus unamended samples / plateau” value in assay [4] (about day 600, FIG. 7) is reported as “about the same as those measured in the unamended samples”.
As for `O=P(O)(O)O` [potassium phosphate], in assay [1], the “methane production, percentage of methane in headspace” value was “rates and yields of methanogenesis were highest”. Also, the “natural gas production rate relative to baseline period” value in assay [5] (FIG. 14A) was “about double the average production rate during the baseline period”. Also, the “natural gas production rate following treatment and dwell periods” value in assay [5] (FIG. 14A, 9.5×10^−5 M, about 14,400 L/day for about 1.2 months, about 2 months dwell) is given as “over 9 mcf/day”. In addition, the “natural gas production rate following treatment” value in assay [5] (FIG. 14B, declining formation) is “jump in the natural gas product rate”. For the same compound, in assay [4] (5 mg/L, after 600 days, FIG. 7), the “methane level higher than samples without phosphate” value is recorded as “about 43%” and the “methane level in headspace” value is recorded as “about 4.3 mol. %”. Besides, the “methane concentration over time, rollover” value in assay [4] (just over 600 days, FIG. 8) is “no plateau was observed; also recorded: significantly higher methane levels than samples treated with a minerals amendment or the samples that were unamended”.
Take `[HH]` [H2, hydrogen]: the “effect on coal metabolism to methane” value in assay [6] is recorded as “stimulated coal metabolism to methane”.
As for `O=P(O)(O)O` [sodium phosphate], the “methanogenesis, percentage of methane in headspace” value in assay [2] is listed as “comparable stimulation relative to more complex nutrient mixtures”. For the same compound, the “rate of methanogenesis” value in assay [7] (FIG. 11A) is “highest rates of methanogenesis”. In addition, the “acetate production” value in assay [7] (FIG. 11B) is “stimulated acetate production relative to the unamended controls”.
In the case of `CC(=O)[O-].[Na+]` [sodium acetate], in assay [8], the “activation period before methane generation” value is given as “about 65 days”. The “methane in the headspace of the sample bottle” value in assay [8] (90th day) is “over 12 mol. %”.

The record behind these values is patent US7977282B2, “Chemical amendments for the stimulation of biogenic gas generation in deposits of carbonaceous material” (Luca Technologies, Inc., priority 2006, dated 2011).
